Earlier results, collected in patent publication US20230218508A1, “BIODEGRADABLE COMPOSITIONS AND IMPLANTS” (RE-VANA THERAPEUTICS LTD, priority 2020, published 2023).

Conditions: target daily release level; for ranibizumab and BEZ about five times the literature IC50

| Molecule | minimum therapeutic level |
| --- | --- |
| CC(C)OC(=O)CCC/C=C\C[C@@H]1[C@@H](CC[C@@H](O)CCc2ccccc2)[C@H](O)C[C@@H]1O [LP, Latanoprost] | 0.105 µg/day |
| Bevacizumab [BEZ] | 0.5 µg/day |
| Ranibizumab (antibody, chains of the INN, looked up, V domains shown, Fab, Marketed antibody therapeutic (LUCENTIS®) with molecular weight close to Ovalbumin) VH: EVQLVESGGGLVQPGGSLRLSCAASGYDFTHYGMNWVRQAPGKGLEWVGWINTYTGEPTYAADFKRRFTFSLDTSKSTAYLQMNSLRAEDTAVYYCAKYPYYYGTSHWYFDVWGQGTLVTVSS VL: DIQLTQSPSSLSASVGDRVTITCSASQDISNYLNWYQQKPGKAPKVLIYFTSSLHSGVPSRFSGSGSGTDFTLTISSLQPEDFATYYCQQYSTVPWTFGQGTKVEIK | 0.5 µg/day |
